Source: patent US9688653B2, “Ethoxyphenyl thienyl compounds and methods for the treatment of bacterial infections” (Duke University, priority 2013, dated 2017)
pIC50: −log10 of the molar value. Where two headings read alike, the source gives them in different places.

Tests used:
[1] = system: K1 antigen of UTI89; assay: K1 antigen whole-cell dot blot with anti-K1 serum; assay type: cell-based, Escherichia coli; settings: 100 μM
Procedure: K1 antigen dot blot. K1 antigen was detected by dot blot assays of culture extracts probed with anti-K1 H46 serum. The assay was performed as previously described. The experiment was repeated twice with similar results, and a representative dot blot is shown.

[2] = system: E. coli K1 strain UTI89; assay: Secondary assay 2: T7 phage-mediated lysis assay; assay type: cell-based, Escherichia coli
In short: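 E. coli K1 UTI89 shaken 1.5 h with compound (100–0.39 μM, quadruplicate, 1% DMSO), initial OD600 taken to flag growth effects without phage. T7 phage, whose entry is blocked by K capsule, then added; OD600 lysis read after 3 h at 37 °C, greater lysis indicating less capsule.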

SMILES: CCOc1ccc(-c2cc(NC(=O)c3c(F)cccc3F)c(C(=O)O)s2)cc1 [ML317, 3-(2,6-difluorobenzamido)-5-(4-ethoxyphenyl)thiophene-2-carboxylic acid]
- Whole-cell anti-K1 dot blot reactivity [1]: reduces K1 reactive material to levels comparable to those of genetic capsule mutants
- pIC50 ([2]; Escherichia coli, commercial sample, SID 103147605, read-out: T7 phage assay IC50): > 6.41
- pIC50 ([2]; Escherichia coli, first round of synthetic analogues, n = 2, read-out: T7 phage IC50): > 6.20
- pIC50 ([2]; Escherichia coli, purchased analogue series, n = 2, read-out: T7 phage IC50): > 6.41
- pIC50 ([2]; Escherichia coli, synthesized sample, SID 126497311, read-out: T7 phage assay IC50): > 6.20
- pIC50 ([2]; listed as CID 23602075, read-out: T7 phage IC50): > 6.41
